One experiment deals with BRM (Homo sapiens, UniProt P51531). The experiment in a line: ATPase catalytic activity assay of BRM (ADP-Glo). Type of experiment: biochemical. The settings on record: for IC50: read-out: BRM IC50 (μM)*. In a few lines:
(§1)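 Luminescence from ADP formed by BRM or BRG-1 ATPase was detected after a two-step ADP-Glo workup at room temperature. The first step, removing unconsumed ATP, took 40 min; the second, converting ADP to ATP for luciferase, took 60 min.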

The target of the next experiment is BRG-1 (Homo sapiens, UniProt P51532). The experiment in a line: ATPase catalytic activity assay of BRG-1 (ADP-Glo). The settings on record: ATPase catalytic activity, ADP-Glo; for IC50: read-out: BRG1 IC50 (μM)*; for Emax: read-out: BRG1 Max % Inhibition. It is filed as biochemical. In a few lines: as §1
Sequence of BRG-1 (P51532 whole entry): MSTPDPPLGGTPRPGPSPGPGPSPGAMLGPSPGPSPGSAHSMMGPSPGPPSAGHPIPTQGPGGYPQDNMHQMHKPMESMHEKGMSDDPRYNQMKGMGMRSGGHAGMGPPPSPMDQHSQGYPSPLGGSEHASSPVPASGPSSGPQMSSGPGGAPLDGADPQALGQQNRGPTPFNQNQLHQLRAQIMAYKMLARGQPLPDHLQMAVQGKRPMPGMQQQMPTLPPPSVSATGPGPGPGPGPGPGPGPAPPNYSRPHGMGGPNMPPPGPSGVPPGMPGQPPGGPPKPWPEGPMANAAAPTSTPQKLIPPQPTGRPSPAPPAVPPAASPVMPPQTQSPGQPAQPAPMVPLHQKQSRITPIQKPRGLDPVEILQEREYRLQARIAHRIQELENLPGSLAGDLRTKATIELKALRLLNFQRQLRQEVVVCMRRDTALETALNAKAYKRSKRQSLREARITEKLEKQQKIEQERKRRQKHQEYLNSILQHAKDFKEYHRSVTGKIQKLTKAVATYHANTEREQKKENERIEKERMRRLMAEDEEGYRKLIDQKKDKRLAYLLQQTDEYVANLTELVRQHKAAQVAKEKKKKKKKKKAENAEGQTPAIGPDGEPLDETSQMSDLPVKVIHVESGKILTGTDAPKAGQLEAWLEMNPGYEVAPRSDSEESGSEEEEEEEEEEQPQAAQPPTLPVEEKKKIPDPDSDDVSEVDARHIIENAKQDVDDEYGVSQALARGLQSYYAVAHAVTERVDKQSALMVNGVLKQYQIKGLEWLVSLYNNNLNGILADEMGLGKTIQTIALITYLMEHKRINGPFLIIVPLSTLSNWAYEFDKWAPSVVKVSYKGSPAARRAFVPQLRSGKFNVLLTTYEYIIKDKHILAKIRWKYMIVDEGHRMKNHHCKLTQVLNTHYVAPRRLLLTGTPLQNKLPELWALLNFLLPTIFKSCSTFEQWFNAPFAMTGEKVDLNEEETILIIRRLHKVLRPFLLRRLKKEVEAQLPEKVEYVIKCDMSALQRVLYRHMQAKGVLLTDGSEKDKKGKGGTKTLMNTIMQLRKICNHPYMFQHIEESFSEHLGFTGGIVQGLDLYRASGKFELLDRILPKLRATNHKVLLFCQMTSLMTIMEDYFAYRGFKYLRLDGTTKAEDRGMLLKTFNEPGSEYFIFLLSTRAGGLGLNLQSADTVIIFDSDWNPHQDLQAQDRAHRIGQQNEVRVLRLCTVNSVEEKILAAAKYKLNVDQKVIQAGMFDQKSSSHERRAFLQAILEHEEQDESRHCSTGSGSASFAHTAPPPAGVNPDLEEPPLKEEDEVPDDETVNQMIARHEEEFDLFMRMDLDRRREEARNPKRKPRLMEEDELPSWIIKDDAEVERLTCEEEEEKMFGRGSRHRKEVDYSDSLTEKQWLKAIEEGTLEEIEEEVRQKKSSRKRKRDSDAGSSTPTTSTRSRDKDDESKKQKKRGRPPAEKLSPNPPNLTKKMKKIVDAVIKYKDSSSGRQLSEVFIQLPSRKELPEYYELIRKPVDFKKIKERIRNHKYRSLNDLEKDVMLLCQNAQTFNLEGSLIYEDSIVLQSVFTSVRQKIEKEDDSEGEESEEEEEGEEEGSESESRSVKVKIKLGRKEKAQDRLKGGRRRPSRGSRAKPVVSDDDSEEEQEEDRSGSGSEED
For orientation: ADP-Glo turns the ADP formed in a reaction into a luminescent signal.

For orientation: IC50 means the midpoint of a concentration-inhibition curve.

Sequence of BRM (P51531 whole entry): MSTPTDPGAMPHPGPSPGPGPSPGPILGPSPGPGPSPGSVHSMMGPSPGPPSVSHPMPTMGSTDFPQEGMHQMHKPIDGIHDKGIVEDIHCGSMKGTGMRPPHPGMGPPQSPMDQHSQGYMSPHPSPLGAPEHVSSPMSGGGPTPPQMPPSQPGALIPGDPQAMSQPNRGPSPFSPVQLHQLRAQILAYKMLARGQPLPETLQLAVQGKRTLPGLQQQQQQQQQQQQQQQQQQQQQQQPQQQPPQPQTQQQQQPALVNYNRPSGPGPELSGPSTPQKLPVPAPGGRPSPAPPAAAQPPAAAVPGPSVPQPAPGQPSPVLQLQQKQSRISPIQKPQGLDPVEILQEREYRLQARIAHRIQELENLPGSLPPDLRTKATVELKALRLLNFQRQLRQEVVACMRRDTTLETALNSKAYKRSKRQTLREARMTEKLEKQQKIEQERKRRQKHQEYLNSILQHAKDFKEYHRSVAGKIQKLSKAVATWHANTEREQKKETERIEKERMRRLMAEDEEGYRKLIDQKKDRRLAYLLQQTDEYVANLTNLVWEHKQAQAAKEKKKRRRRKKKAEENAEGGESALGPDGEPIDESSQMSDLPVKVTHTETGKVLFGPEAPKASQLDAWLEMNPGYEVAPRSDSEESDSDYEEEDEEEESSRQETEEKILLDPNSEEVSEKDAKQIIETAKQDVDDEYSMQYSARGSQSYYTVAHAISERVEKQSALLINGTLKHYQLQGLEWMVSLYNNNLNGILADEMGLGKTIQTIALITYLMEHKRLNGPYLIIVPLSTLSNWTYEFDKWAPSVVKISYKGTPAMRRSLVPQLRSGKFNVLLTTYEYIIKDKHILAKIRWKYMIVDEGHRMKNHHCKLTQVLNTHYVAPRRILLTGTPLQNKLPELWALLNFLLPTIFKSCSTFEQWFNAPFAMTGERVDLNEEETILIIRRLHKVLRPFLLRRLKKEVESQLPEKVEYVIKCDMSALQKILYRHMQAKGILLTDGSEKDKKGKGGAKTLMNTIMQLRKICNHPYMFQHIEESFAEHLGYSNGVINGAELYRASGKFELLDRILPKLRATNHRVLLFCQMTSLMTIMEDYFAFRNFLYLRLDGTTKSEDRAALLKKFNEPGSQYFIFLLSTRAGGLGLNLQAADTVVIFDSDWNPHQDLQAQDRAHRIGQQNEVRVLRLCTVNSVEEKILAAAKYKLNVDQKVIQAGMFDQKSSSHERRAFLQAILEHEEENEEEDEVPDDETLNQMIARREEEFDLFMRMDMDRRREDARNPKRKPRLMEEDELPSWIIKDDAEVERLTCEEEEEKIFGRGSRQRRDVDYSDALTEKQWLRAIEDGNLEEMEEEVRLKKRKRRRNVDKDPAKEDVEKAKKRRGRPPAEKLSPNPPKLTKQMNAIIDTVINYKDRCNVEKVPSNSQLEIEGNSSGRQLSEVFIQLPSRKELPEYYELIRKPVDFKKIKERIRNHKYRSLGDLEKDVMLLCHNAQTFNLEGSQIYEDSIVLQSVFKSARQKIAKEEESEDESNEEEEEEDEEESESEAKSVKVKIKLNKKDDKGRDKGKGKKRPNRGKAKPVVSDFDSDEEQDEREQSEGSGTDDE

Turning to `COc1cccc(-c2csc(NC(=O)CNC(=O)c3ccc4c(c3)C(C)(C#N)CNC4)n2)c1` (stereo not drawn) [Compound 311, 4-cyano-N-(2-((4-(3-methoxyphenyl)thiazol-2-yl)amino)-2-oxoethyl)-4-methyl-1,2,3,4-tetrahydroisoquinoline-6-carboxamide], on BRM, the “BRM Max % Inhibition” value was greater than 95% and the IC50 lay in the range of 0.1 to 1 µM. At BRG-1, the IC50 fell in the range of 1 to 5 µM and the Emax was greater than 95%.

In the case of `COc1cccc(-c2csc(NC(=O)CNC(=O)c3ccc4c(c3)[C@](C)(F)COC4)n2)c1` [Compound 312, (S)-4-fluoro-N-(2-((4-(3-methoxyphenyl)thiazol-2-yl)amino)-2-oxoethyl)-4-methylisochromane-6-carboxamide], on BRM, the “BRM Max % Inhibition” value was greater than 95% and the IC50 was less than 0.1 µM. On BRG-1, the IC50 was 0.1 to 1 µM and the Emax was greater than 95%.

For the compound `COc1cccc(-c2csc(NC(=O)CNC(=O)c3ccc4c(c3)C(C)(O)COC4)n2)c1` (stereo not drawn) [Compound 313, 4-hydroxy-N-(2-((4-(3-methoxyphenyl)thiazol-2-yl)amino)-2-oxoethyl)-4-methylisochromane-6-carboxamide], on BRM, the “BRM Max % Inhibition” value is greater than 90% and the IC50 lay within 0.1 to 1 µM. For the same compound, at BRG-1, the IC50 was in the range of 1 to 5 µM and the Emax was greater than 90%.

In the case of `C[C@@]1(F)COCc2ccc(C(=O)NCC(=O)Nc3nc(-c4cc(F)cc(C#N)c4)cs3)cc21` [Compound 314, (S)-N-(2-((4-(3-cyano-5-fluorophenyl)thiazol-2-yl)amino)-2-oxoethyl)-4-fluoro-4-methylisochromane-6-carboxamide], on BRM, the “BRM Max % Inhibition” value is greater than 90% and the IC50 is less than 0.1 µM. For the same compound, at BRG-1, the IC50 was 0.1 to 1 µM and the Emax was greater than 90%.

On to `C[C@@]1(F)COCc2ccc(C(=O)NCC(=O)Nc3nc(-c4cccc(C#N)c4)cs3)cc21` [Compound 315, (S)-N-(2-((4-(3-cyanophenyl)thiazol-2-yl)amino)-2-oxoethyl)-4-fluoro-4-methylisochromane-6-carboxamide], for which, at BRM, the “BRM Max % Inhibition” value is recorded as greater than 95% and the half-maximal inhibitory concentration (IC50) is less than 0.1 µM. Moreover, at BRG-1, the IC50 was 0.1 to 1 µM and the Emax is greater than 95%.

For `C[C@@]1(C#N)COCc2ccc(C(=O)NCC(=O)Nc3nc(-c4cc(F)cc(C5CCO5)c4)cs3)cc21` (stereo partly drawn) [Compound 316, (R)-4-cyano-N-(2-((4-(3-fluoro-5-(oxetan-2-yl)phenyl)thiazol-2-yl)amino)-2-oxoethyl)-4-methylisochromane-6-carboxamide], at BRM, the “BRM Max % Inhibition” value is greater than 95% and the IC50 was less than 0.1 µM. Also, on BRG-1, the IC50 is less than 0.1 µM and the Emax is greater than 95%.

For `C[C@@H]1CN(c2cccc(-c3csc(NC(=O)CNC(=O)c4cccc([C@]5(F)C[C@@](C)(O)C5)c4)n3)c2)C[C@H](C)O1` [Compound 317, N-(2-((4-(3-((cis)-2,6-dimethylmorpholino)phenyl)thiazol-2-yl)amino)-2-oxoethyl)-3-((1s,3s)-1-fluoro-3-hydroxy-3-methylcyclobutyl)benzamide], at BRM, the “BRM Max % Inhibition” value was greater than 95% and the IC50 is less than 0.1 µM. Besides, at BRG-1, the IC50 fell in the range of 1 to 5 µM and the Emax was greater than 95%.

For `C[C@@H]1CN(c2cccc(-c3csc(NC(=O)CNC(=O)c4cccc(C5(F)CC6(COC6)C5)c4)n3)n2)C[C@H](C)O1` [Compound 318, N-(2-((4-(6-((cis)-2,6-dimethylmorpholino)pyridin-2-yl)thiazol-2-yl)amino)-2-oxoethyl)-3-(6-fluoro-2-oxaspiro[3.3]heptan-6-yl)benzamide], on BRM, the “BRM Max % Inhibition” value is reported as greater than 90% and the IC50 lay in the range of 0.1 to 1 µM. Further, at BRG-1, the IC50 was greater than 5 µM and the Emax was greater than 90%.

For the compound `C[C@@H]1CN(c2cccc(-c3csc(NC(=O)CNC(=O)c4ccc5c(c4)[C@@H](C)COC5)n3)n2)C[C@H](C)O1` [Compound 320, (R)-N-(2-((4-(6-((cis)-2,6-dimethylmorpholino)pyridin-2-yl)thiazol-2-yl)amino)-2-oxoethyl)-4-methylisochromane-6-carboxamide], at BRM, the “BRM Max % Inhibition” value is on record as greater than 95% and the IC50 was less than 0.1 µM. Further, on BRG-1, the IC50 fell in the range of 0.1 to 1 µM and the Emax was greater than 95%.

In the case of `C[C@@H]1CN(c2cccc(-c3csc(NC(=O)CNC(=O)c4ccc5c(c4)[C@H](C)COC5)n3)n2)C[C@H](C)O1` [Compound 321, (S)-N-(2-((4-(6-((cis)-2,6-dimethylmorpholino)pyridin-2-yl)thiazol-2-yl)amino)-2-oxoethyl)-4-methylisochromane-6-carboxamide], at BRM, the “BRM Max % Inhibition” value is recorded as greater than 90% and the IC50 was less than 0.1 µM. At BRG-1, the IC50 lay in the range of 0.1 to 1 µM and the Emax is greater than 90%.

For `C[C@@]1(C#N)COCc2ccc(C(=O)NCC(=O)Nc3nc(-c4cccc(F)c4)cs3)cc21` [Compound 322, (R)-4-cyano-N-(2-((4-(3-fluorophenyl)thiazol-2-yl)amino)-2-oxoethyl)-4-methylisochromane-6-carboxamide], on BRM, the “BRM Max % Inhibition” value is greater than 95% and the IC50 is less than 0.1 µM. Moreover, on BRG-1, the IC50 fell in the range of 0.1 to 1 µM and the Emax is greater than 95%.

For `C[C@@]1(C#N)COCc2ccc(C(=O)NCC(=O)Nc3nc(-c4ccccc4)cs3)cc21` [Compound 323, (R)-4-cyano-4-methyl-N-(2-oxo-2-((4-phenylthiazol-2-yl)amino)ethyl)isochromane-6-carboxamide], on BRM, the “BRM Max % Inhibition” value is reported as greater than 95% and the IC50 was less than 0.1 µM. For the same compound, at BRG-1, the IC50 fell in the range of 0.1 to 1 µM and the Emax was greater than 95%.

For the compound `C[C@@H]1CN(c2cccc(-c3csc(NC(=O)CNC(=O)c4ccc5c(c4)C(O)(C(F)F)COC5)n3)c2)C[C@H](C)O1` (stereo partly drawn) [Compound 326, 4-(difluoromethyl)-N-(2-((4-(3-((cis)-2,6-dimethylmorpholino)phenyl)thiazol-2-yl)amino)-2-oxoethyl)-4-hydroxyisochromane-6-carboxamide], on BRM, the “BRM Max % Inhibition” value is listed as greater than 95% and the IC50 is less than 0.1 µM. At BRG-1, the IC50 lay in the range of 0.1 to 1 µM and the Emax was greater than 95%.

For the compound `C[C@@]1(C#N)COCc2ccc(C(=O)NCC(=O)Nc3nc(-c4cccc(N5CCC56COC6)c4)cs3)cc21` [Compound 328, (R)-N-(2-((4-(3-(6-oxa-1-azaspiro[3.3]heptan-1-yl)phenyl)thiazol-2-yl)amino)-2-oxoethyl)-4-cyano-4-methylisochromane-6-carboxamide], at BRM, the “BRM Max % Inhibition” value is on record as greater than 95% and the IC50 was less than 0.1 µM. At BRG-1, the IC50 was in the range of 0.1 to 1 µM and the Emax was greater than 95%.

With `C[C@@H]1CN(c2cccc(-c3csc(NC(=O)CNC(=O)c4ccc5c(c4)C(F)(C(F)F)COC5)n3)c2)C[C@H](C)O1` (stereo partly drawn) [Compound 329, 4-(difluoromethyl)-N-(2-((4-(3-((cis)-2,6-dimethylmorpholino)phenyl)thiazol-2-yl)amino)-2-oxoethyl)-4-fluoroisochromane-6-carboxamide], at BRM, the “BRM Max % Inhibition” value is on record as greater than 95% and the IC50 is less than 0.1 µM. In addition, at BRG-1, the IC50 is less than 0.1 µM and the Emax is greater than 95%.

With `C[C@@]1(F)COCc2ccc(C(=O)NCC(=O)Nc3nc(-c4ccnc(C5(O)CC5)c4)cs3)cc21` [Compound 330, (S)-4-fluoro-N-(2-((4-(2-(1-hydroxycyclopropyl)pyridin-4-yl)thiazol-2-yl)amino)-2-oxoethyl)-4-methylisochromane-6-carboxamide], on BRM, the “BRM Max % Inhibition” value is recorded as greater than 95% and the IC50 is less than 0.1 µM. For the same compound, on BRG-1, the IC50 was in the range of 0.1 to 1 µM and the Emax was greater than 95%.

As to `C[C@@]1(F)COCc2ccc(C(=O)NCC(=O)Nc3nc(-c4cccc(C(F)F)n4)cs3)cc21` [Compound 331, (S)-N-(2-((4-(6-(difluoromethyl)pyridin-2-yl)thiazol-2-yl)amino)-2-oxoethyl)-4-fluoro-4-methylisochromane-6-carboxamide], on BRM, the “BRM Max % Inhibition” value is greater than 95% and the IC50 was less than 0.1 µM. Besides, at BRG-1, the IC50 lay within 0.1 to 1 µM and the Emax was greater than 95%.

Take `C[C@@]1(F)COCc2ccc(C(=O)NCC(=O)Nc3nc(-c4cccc(N5CCC5)c4)cs3)cc21` [Compound 332, (S)-N-(2-((4-(3-(azetidin-1-yl)phenyl)thiazol-2-yl)amino)-2-oxoethyl)-4-fluoro-4-methylisochromane-6-carboxamide]: at BRM, the “BRM Max % Inhibition” value is given as greater than 95% and the IC50 was less than 0.1 µM. At BRG-1, the IC50 is less than 0.1 µM and the Emax is greater than 95%.

Turning to `C[C@@]1(C#N)COCc2ccc(C(=O)NC3(C(=O)Nc4nc(-c5cccc(C(F)F)c5)cs4)CC3)cc21` [Compound 333, (R)-4-cyano-N-(1-((4-(3-(difluoromethyl)phenyl)thiazol-2-yl)carbamoyl)cyclopropyl)-4-methylisochromane-6-carboxamide], at BRM, the “BRM Max % Inhibition” value is reported as greater than 75% and the IC50 was in the range of 0.1 to 1 µM. Moreover, on BRG-1, the IC50 was in the range of 1 to 5 µM and the Emax is greater than 75%.

For `COc1cccc(-c2csc(NC(=O)CNC(=O)c3cc(OC)c4c(c3)[C@](C)(C#N)COC4)n2)c1` [Compound 335, (R)-4-cyano-8-methoxy-N-(2-((4-(3-methoxyphenyl)thiazol-2-yl)amino)-2-oxoethyl)-4-methylisochromane-6-carboxamide], at BRM, the “BRM Max % Inhibition” value is on record as greater than 90% and the IC50 was 0.1 to 1 µM. On BRG-1, the IC50 was greater than 5 µM and the Emax was greater than 90%.

`COc1cccc(-c2csc(NC(=O)C3(NC(=O)c4ccc5c(c4)[C@](C)(C#N)COC5)CC3(F)F)n2)c1` (stereo partly drawn) [Compound 336, (R)-4-cyano-N-(2,2-difluoro-1-((4-(3-methoxyphenyl)thiazol-2-yl)carbamoyl)cyclopropyl)-4-methylisochromane-6-carboxamide]: at BRM, the “BRM Max % Inhibition” value is recorded as greater than 85% and the IC50 was 0.1 to 1 µM. On BRG-1, the IC50 lay in the range of 1 to 5 µM and the Emax is greater than 85%.

Values taken from patent US12685735B2 (Foghorn Therapeutics Inc., priority 2020, dated 2026).
